# Measurements published in US11446287B2, “Compounds and methods for EP300 or CBP modulation and indications therefor” (Opna Immuno-Oncology SA, priority 2019, dated 2022).
# Target: T1, Recombinant human EP300 containing the bromodomain (EP300-BD (1040-1161)) (Homo sapiens, UniProt Q09472)
# T1 construct: Recombinant human EP300 bromodomain (EP300-BD (1040-1161)); made in house; host or cells: E. coli BL21-CodonPlus (DE3), modified pET vector
# T1 sequence (Q09472 1040-1161): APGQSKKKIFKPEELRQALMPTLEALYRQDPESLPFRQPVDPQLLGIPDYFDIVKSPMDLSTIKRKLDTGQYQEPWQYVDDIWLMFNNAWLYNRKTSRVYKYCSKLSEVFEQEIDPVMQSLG
# Assay: EP300 Alphascreen binding assay
# In short: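 Displacement of a biotinylated acetyl-K56 histone H3 peptide from the N-His bromodomain construct (1040-1161) measured by AlphaScreen proximity, beads at 7.5 μg/ml final, read 60 min after addition. Protein, peptide and compound first incubated 1 h at room temperature, pH 7.5 HEPES buffer; IC50 by four-parameter logistic fit.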
row,SMILES,IC50 [nM]
1,"Cc1nn(C(F)F)cc1-n1cc(-c2ccc(C(=O)O)cc2OC(F)(F)F)c2cc(-c3c(C)noc3C)cnc21 [P-0288, 4-(1-(1-(difluoromethyl)-3-methyl-1H-pyrazol-4-yl)-5-(3,5-dimethylisoxazol-4-yl)-1H-pyrrolo[2,3-b]pyridin-3-yl)-3-(trifluoromethoxy)benzoic acid]",0.1 to 1000
2,"Cc1noc(C)c1-c1cnc2c(c1)c(-c1ccc(C(=O)O)cc1OC(F)(F)F)cn2-c1cnn(C(F)F)c1C [P-0289, 4-(1-(1-(difluoromethyl)-5-methyl-1H-pyrazol-4-yl)-5-(3,5-dimethylisoxazol-4-yl)-1H-pyrrolo[2,3-b]pyridin-3-yl)-3-(trifluoromethoxy)benzoic acid]",0.1 to 1000
3,"Cc1noc(C)c1-c1cnc2c(c1)c(-c1ccc(C(=O)O)cc1OC(F)(F)F)cn2C1CCNCC1 [P-0290, 4-(5-(3,5-dimethylisoxazol-4-yl)-1-(piperidin-4-yl)-1H-pyrrolo[2,3-b]pyridin-3-yl)-3-(trifluoromethoxy)benzoic acid]",0.1 to 1000
4,"CC(=O)N1CCC(n2cc(-c3ccc(C(=O)O)cc3OC(F)(F)F)c3cc(-c4c(C)noc4C)cnc32)CC1 [P-0291, 4-(1-(1-acetylpiperidin-4-yl)-5-(3,5-dimethylisoxazol-4-yl)-1H-pyrrolo[2,3-b]pyridin-3-yl)-3-(trifluoromethoxy)benzoic acid]",0.1 to 1000
5,"Cc1noc(C)c1-c1cnc2c(c1)c(-c1ccc(C(=O)O)cc1OC(F)(F)F)cn2C1CCN(S(C)(=O)=O)CC1 [P-0292, 4-(5-(3,5-dimethylisoxazol-4-yl)-1-(1-(methylsulfonyl)piperidin-4-yl)-1H-pyrrolo[2,3-b]pyridin-3-yl)-3-(trifluoromethoxy)benzoic acid]",0.1 to 1000
6,"Cc1noc(C)c1-c1cnc2c(c1)c(-c1ccc(C(=O)O)cc1OC(F)(F)F)cn2-c1ccncc1F [P-0293, 4-(5-(3,5-dimethylisoxazol-4-yl)-1-(3-fluoropyridin-4-yl)-1H-pyrrolo[2,3-b]pyridin-3-yl)-3-(trifluoromethoxy)benzoic acid]",0.1 to 1000
7,"Cc1noc(C)c1-c1cnc2c(c1)c(-c1ccc(C(=O)O)cc1OC(F)(F)F)cn2-c1cnn(CC(C)(C)O)c1 [P-0294, 4-(5-(3,5-dimethylisoxazol-4-yl)-1-(1-(2-hydroxy-2-methylpropyl)-1H-pyrazol-4-yl)-1H-pyrrolo[2,3-b]pyridin-3-yl)-3-(trifluoromethoxy)benzoic acid]",0.1 to 1000
8,"CCOc1cc(C(=O)O)ncc1-c1cn(-c2ccc(F)cc2F)c2ncc(-c3c(C)noc3C)cc12 [P-0295, 5-(1-(2,4-difluorophenyl)-5-(3,5-dimethylisoxazol-4-yl)-1H-pyrrolo[2,3-b]pyridin-3-yl)-4-ethoxypicolinic acid]",0.1 to 1000
9,"CCOc1c(F)c(C(=O)O)c(F)c(OCC)c1-c1cn(-c2ccc(F)cc2F)c2ncc(-c3c(C)noc3C)cc12 [P-0296, 4-(1-(2,4-difluorophenyl)-5-(3,5-dimethylisoxazol-4-yl)-1H-pyrrolo[2,3-b]pyridin-3-yl)-3,5-diethoxy-2,6-difluorobenzoic acid]",0.1 to 1000
10,"CCOc1cc(C(=O)O)c(F)c(OCC)c1-c1cn(-c2ccc(F)cc2F)c2ncc(-c3c(C)noc3C)cc12 [P-0297, 4-(1-(2,4-difluorophenyl)-5-(3,5-dimethylisoxazol-4-yl)-1H-pyrrolo[2,3-b]pyridin-3-yl)-3,5-diethoxy-2-fluorobenzoic acid]",0.1 to 1000
11,"Cc1noc(C)c1-c1cnc2c(-c3ccccc3)cn(-c3c(OCC(F)(F)F)cc(C(=O)O)cc3OCC(F)(F)F)c2c1 [P-0298, 4-(6-(3,5-dimethylisoxazol-4-yl)-3-phenyl-1H-pyrrolo[3,2-b]pyridin-1-yl)-3,5-bis(2,2,2-trifluoroethoxy)benzoic acid]",0.1 to 1000
12,"Cc1noc(C)c1-c1cnc2c(c1)c(-c1ccc(C(=O)O)cc1OC(C)C)cn2-c1cnn(CC(C)(C)O)c1 [P-0299, 4-(5-(3,5-dimethylisoxazol-4-yl)-1-(1-(2-hydroxy-2-methylpropyl)-1H-pyrazol-4-yl)-1H-pyrrolo[2,3-b]pyridin-3-yl)-3-isopropoxybenzoic acid]",0.1 to 1000
13,"Cc1noc(C)c1-c1cnc2c(c1)c(-c1ccc(C(=O)O)cc1OC(C)C)cn2-c1cnc(N2CCC2)nc1 [P-0300, 4-(1-(2-(azetidin-1-yl)pyrimidin-5-yl)-5-(3,5-dimethylisoxazol-4-yl)-1H-pyrrolo[2,3-b]pyridin-3-yl)-3-isopropoxybenzoic acid]",0.1 to 1000
14,"Cc1noc(C)c1-c1cnc2c(c1)c(-c1ccc(C(=O)O)cc1OC(C)C)cn2[C@H]1CCOC1 [P-0301, (S)-4-(5-(3,5-dimethylisoxazol-4-yl)-1-(tetrahydrofuran-3-yl)-1H-pyrrolo[2,3-b]pyridin-3-yl)-3-isopropoxybenzoic acid]",0.1 to 1000
15,"Cc1noc(C)c1-c1cnc2c(c1)c(-c1ccc(S(C)(=O)=O)cc1OC(C)C)cn2-c1ccccc1 [P-0302, 4-(3-(2-isopropoxy-4-(methylsulfonyl)phenyl)-1-phenyl-1H-pyrrolo[2,3-b]pyridin-5-yl)-3,5-dimethylisoxazole]",0.1 to 1000
16,"CCCn1nc(C(=O)O)c(N)c1-c1cn(-c2ccc(F)cc2F)c2ncc(-c3c(C)noc3C)cc12 [P-0303, 4-amino-5-(1-(2,4-difluorophenyl)-5-(3,5-dimethylisoxazol-4-yl)-1H-pyrrolo[2,3-b]pyridin-3-yl)-1-propyl-1H-pyrazole-3-carboxylic acid]",0.1 to 1000
17,"CCCn1nc(C(=O)O)c(NCC)c1-c1cn(-c2ccc(F)cc2F)c2ncc(-c3c(C)noc3C)cc12 [P-0304, 5-(1-(2,4-difluorophenyl)-5-(3,5-dimethylisoxazol-4-yl)-1H-pyrrolo[2,3-b]pyridin-3-yl)-4-(ethylamino)-1-propyl-1H-pyrazole-3-carboxylic acid]",0.1 to 1000
18,"Cc1nnn(C)c1-c1cnc2c(c1)c(-c1ccc(C(=O)O)cc1OC(F)(F)F)cn2CC/C=C/C1CC1 [P-0305, (E)-4-(1-(4-cyclopropylbut-3-en-1-yl)-5-(1,4-dimethyl-1H-1,2,3-triazol-5-yl)-1H-pyrrolo[2,3-b]pyridin-3-yl)-3-(trifluoromethoxy)benzoic acid]",0.1 to 1000
19,"Cc1noc(C)c1-c1cnc2c(c1)c(-c1ccc(C(=O)O)cc1OCC(F)F)cn2-c1ccncc1Cl [P-0306, 4-(1-(3-chloropyridin-4-yl)-5-(3,5-dimethylisoxazol-4-yl)-1H-pyrrolo[2,3-b]pyridin-3-yl)-3-(2,2-difluoroethoxy)benzoic acid]",0.1 to 1000
20,"Cc1noc(C)c1-c1cnc2c(c1)c(-c1ccc(C(=O)O)cc1OC(F)(F)F)cn2-c1ccccc1Cl [P-0307, 4-(1-(2-chlorophenyl)-5-(3,5-dimethylisoxazol-4-yl)-1H-pyrrolo[2,3-b]pyridin-3-yl)-3-(trifluoromethoxy)benzoic acid]",0.1 to 1000
21,"Cc1noc(C)c1-c1cnc2c(c1)c(-c1ccc(C(=O)O)cc1OC(F)(F)F)cn2-c1ccccc1C1CC1 [P-0308, 4-(1-(2-cyclopropylphenyl)-5-(3,5-dimethylisoxazol-4-yl)-1H-pyrrolo[2,3-b]pyridin-3-yl)-3-(trifluoromethoxy)benzoic acid]",0.1 to 1000
22,"Cc1noc(C)c1-c1cnc2c(c1)c(-c1ccc(C(=O)O)cc1OC(F)(F)F)cn2-c1ccccc1C#N [P-0309, 4-(1-(2-cyanophenyl)-5-(3,5-dimethylisoxazol-4-yl)-1H-pyrrolo[2,3-b]pyridin-3-yl)-3-(trifluoromethoxy)benzoic acid]",0.1 to 1000
23,"Cc1cc(C#N)ccc1-n1cc(-c2ccc(C(=O)O)cc2OC(F)(F)F)c2cc(-c3c(C)noc3C)cnc21 [P-0310, 4-(1-(4-cyano-2-methylphenyl)-5-(3,5-dimethylisoxazol-4-yl)-1H-pyrrolo[2,3-b]pyridin-3-yl)-3-(trifluoromethoxy)benzoic acid]",0.1 to 1000
24,"COc1ccc(-n2cc(-c3ccc(C(=O)O)cc3OC(F)(F)F)c3cc(-c4c(C)noc4C)cnc32)c(F)c1 [P-0311, 4-(5-(3,5-dimethylisoxazol-4-yl)-1-(2-fluoro-4-methoxyphenyl)-1H-pyrrolo[2,3-b]pyridin-3-yl)-3-(trifluoromethoxy)benzoic acid]",0.1 to 1000
25,"C=C(C)c1ccccc1-n1cc(-c2ccc(C(=O)O)cc2OC(F)(F)F)c2cc(-c3c(C)noc3C)cnc21 [P-0312, 4-(5-(3,5-dimethylisoxazol-4-yl)-1-(2-(prop-1-en-2-yl)phenyl)-1H-pyrrolo[2,3-b]pyridin-3-yl)-3-(trifluoromethoxy)benzoic acid]",0.1 to 1000
26,"Cc1noc(C)c1-c1cnc2c(c1)c(-c1ccc(C(=O)O)cc1OC(F)(F)F)cn2-c1ccc(C#N)cc1 [P-0313, 4-(1-(4-cyanophenyl)-5-(3,5-dimethylisoxazol-4-yl)-1H-pyrrolo[2,3-b]pyridin-3-yl)-3-(trifluoromethoxy)benzoic acid]",0.1 to 1000
27,"Cc1noc(C)c1-c1cnc2c(c1)c(-c1ccc(C(=O)O)cc1OC(F)(F)F)cn2-c1ccc(C(C)(C)O)cc1 [P-0314, 4-(5-(3,5-dimethylisoxazol-4-yl)-1-(4-(2-hydroxypropan-2-yl)phenyl)-1H-pyrrolo[2,3-b]pyridin-3-yl)-3-(trifluoromethoxy)benzoic acid]",0.1 to 1000
28,"Cc1noc(C)c1-c1cnc2c(c1)c(-c1ccc(C(=O)O)cc1OC(F)(F)F)cn2-c1ccsc1 [P-0315, 4-(5-(3,5-dimethylisoxazol-4-yl)-1-(thiophen-3-yl)-1H-pyrrolo[2,3-b]pyridin-3-yl)-3-(trifluoromethoxy)benzoic acid]",0.1 to 1000
